Assay results: the supplement of paper PMC11061612

Tests used:
[1] = compound: C1CN(CCC1(C(=O)N[C@@H](CCO)C2=CC=C(C=C2)Cl)N)C3=NC=NC4=C3C=CN4 [AZD5363]; settings: max 10 µM
Outline: (§1)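 Viability was measured with CellTiter-Glo 2.0 luminescence after 72 hours of dosing at a final DMSO of typically 0.2%, and scaled between blank-well and DMSO-well means. Beforehand, cancer cell lines sat 24 hours at 37°C and 5% CO2 in 1536-well plates in 7.5 μl DMEM/F12 or RPMI with 10% FBS. A non-linear mixed effects model fitted two-parameter logistic curves to the dose responses. The single-agent IC50 comes from these fits.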

[2] = compound: C[C@@H](Nc1cc(F)cc(F)c1)c1cc(C(=O)N(C)C)cc2c(=O)cc(N3CCOCC3)oc12 [AZD8186]; settings: max 10 µM
Outline: as §1

[3] = compound: CN(CC[C@H](CSC1=CC=CC=C1)NC2=C(C=C(C=C2)S(=O)(=O)NC(=O)C3=CC=C(C=C3)N4CCC(CC4)[C@H](C5=CC=CC=C5C6=CC=C(C=C6)Cl)O)S(=O)(=O)C(F)(F)F)CCO [AZD4320]; settings: max 1 µM
Outline: as §1

[4] = compound: COc1cc([C@@H]2c3cc4c(cc3[C@@H](O[C@@H]3O[C@@H]5CO[C@@H](C)O[C@H]5[C@H](O)[C@H]3O)[C@H]3COC(=O)[C@H]23)OCO4)cc(OC)c1O [Etoposide]; settings: max 10 µM
Outline: as §1

[5] = compound: O=c1[nH]cc(F)c(=O)[nH]1 [5-Fluorouracil]; settings: max 20 µM
Outline: as §1

[6] = compound: CC1(C)CCC(CN2CCN(c3ccc(C(=O)NS(=O)(=O)c4ccc(NCC5CCOCC5)c([N+](=O)[O-])c4)c(Oc4cnc5[nH]ccc5c4)c3)CC2)=C(c2ccc(Cl)cc2)C1 [Venetoclax]; settings: max 1 µM
Outline: as §1

[7] = compound: O=C(Nc1ccc2[nH]nc(-c3ccncc3)c2c1)[C@@H]1CCN(CC(=O)N2CCN(c3ccc(-c4ncccn4)cc3)CC2)C1; settings: max 5 µM
Outline: as §1

[8] = compound: COc1nnc2ccc(N3CCC(c4ccc(OCCN5CCN(C)C(=O)[C@H]5C)cc4)CC3)nn12 [AZD5153]; settings: max 1 µM
Outline: as §1

[9] = compound: CC1=CN2[C@@H](C1)C=NC3=CC(=C(C=C3C2=O)OC)OCCCCCOC4=C(C=C5C(=C4)N=C[C@@H]6CC(=CN6C5=O)C)OC [SG3199]; settings: max 0.001 µM
Outline: as §1

[10] = compound: CC(C)n1c(=O)n(C)c2cnc3cc(F)c(-c4ccc(OCCCN5CCCCC5)nc4)cc3c21 [AZD1390]; settings: max 0.3 µM
Outline: as §1

[11] = compound: CC(=O)Nc1cccc(-n2c(=O)n(C3CC3)c(=O)c3c(Nc4ccc(I)cc4F)n(C)c(=O)c(C)c32)c1 [Trametinib]; settings: max 1 µM
Outline: as §1

[12] = compound: CC(=O)O[C@H]1C(=O)[C@@]2(C)[C@H]([C@H](OC(=O)c3ccccc3)[C@]3(O)C[C@H](OC(=O)[C@H](O)[C@@H](NC(=O)c4ccccc4)c4ccccc4)C(C)=C1C3(C)C)[C@]1(OC(C)=O)CO[C@@H]1C[C@@H]2O [Paclitaxel]; settings: max 3 µM
Outline: as §1

[13] = compound: C1CC(C1)(C(=O)[O-])C(=O)[O-].N.N.[Pt+2] [Carboplatin]; settings: max 10 µM
Outline: as §1

[14] = compound: Cc1c2c(nn1C)CSCc1cc(n(C)n1)CSc1cc(c3ccccc3c1)OCCCc1c(C(=O)O)n(C)c3c-2c(Cl)ccc13 [AZD5991]; settings: max 1 µM
Outline: as §1

[15] = compound: O=C(c1cc(Cc2n[nH]c(=O)c3ccccc23)ccc1F)N1CCN(C(=O)C2CC2)CC1 [Olaparib]; settings: max 10 µM
Outline: as §1

[16] = compound: Cc1nc(-c2cn3c(n2)-c2ccc(-c4cnn(C(C)(C)C(N)=O)c4)cc2OCC3)n(C(C)C)n1 [Taselisib]; settings: max 10 µM
Outline: as §1

[17] = compound: CN(C)CCCOc1ccc(-c2ccc3ncc4c(c3c2)n(C2CCOCC2)c(=O)n4C)cn1 [AZD0156]; settings: max 3 µM
Outline: as §1

[18] = compound: Nc1ccn([C@@H]2O[C@H](CO)[C@@H](O)C2(F)F)c(=O)n1 [Gemcitabine]; settings: max 0.3 µM
Outline: as §1

[19] = compound: COc1cc2ncnc(Nc3ccc(F)c(Cl)c3)c2cc1OCCCN1CCOCC1 [Gefitinib]; settings: max 10 µM
Outline: as §1

[20] = compound: C=CCn1c(=O)c2cnc(Nc3ccc(N4CCN(C)CC4)cc3)nc2n1-c1cccc(C(C)(C)O)n1 [AZD1775]; settings: max 3 µM
Outline: as §1

[21] = compound: Cc1cc2ncnn2cc1Nc1ncc2c(n1)n(C1CCOCC1)c(=O)n2C [AZD7648]; settings: max 10 µM
Outline: as §1

[22] = compound: CCN(CCO)CCCOc1ccc2c(Nc3cc(CC(=O)Nc4cccc(F)c4)[nH]n3)ncnc2c1 [AZD2811]; settings: max 1 µM
Outline: as §1

[23] = compound: C[C@@H](c1ccc2nccn2c1)n1nnc2ncc(-c3cnn(C)c3)nc21 [Savolitinib]; settings: max 1 µM
Outline: as §1

[24] = compound: COc1cccc(OCCCN)c1-c1cc(Nc2cnc(C#N)cn2)n[nH]1 [Prexasertib]; settings: max 1 µM
Outline: as §1

[25] = compound: CC1=C(C(=CC=C1)Cl)NC(=O)C2=CN=C(S2)NC3=CC(=NC(=N3)C)N4CCN(CC4)CCO [Dasatinib]; settings: max 2 µM
Outline: as §1

[26] = compound: COc1cc(Nc2ncc3c(n2)-c2ccc(Cl)cc2C(c2c(F)cccc2OC)=NC3)ccc1C(=O)O [Alisertib]; settings: max 10 µM
Outline: as §1

[27] = compound: CC(=O)c1c(C)c2cnc(Nc3ccc(N4CCNCC4)cn3)nc2n(C2CCCC2)c1=O [Palbociclib]; settings: max 10 µM
Outline: as §1

[28] = compound: NC1(c2ccc(-c3nc4ccn5c(=O)[nH]nc5c4cc3-c3ccccc3)cc2)CCC1 [MK-2206]; settings: max 10 µM
Outline: as §1

[29] = compound: CCc1c2c(nc3ccc(O)cc13)-c1cc3c(c(=O)n1C2)COC(=O)[C@]3(O)CC [SN-38]; settings: max 0.3 µM
Outline: as §1

[30] = compound: COc1cccc2c1C(=O)c1c(O)c3c(c(O)c1C2=O)C[C@@](O)(C(=O)CO)C[C@@H]3O[C@H]1C[C@H](N)[C@H](O)[C@H](C)O1 [Doxorubicin]; settings: max 1 µM
Outline: as §1

[31] = compound: C[C@@H](Oc1cc(-c2cnn(C3CCNCC3)c2)cnc1N)c1c(Cl)ccc(F)c1Cl [Crizotinib]; settings: max 10 µM
Outline: as §1

[32] = compound: CS(=O)(=O)CCNCc1ccc(-c2ccc3ncnc(Nc4ccc(OCc5cccc(F)c5)c(Cl)c4)c3c2)o1 [Lapatinib]; settings: max 10 µM
Outline: as §1

[33] = compound: Cn1cnc2c(F)c(Nc3ccc(Br)cc3Cl)c(C(=O)NOCCO)cc21 [Selumetinib]; settings: max 10 µM
Outline: as §1

[34] = compound: C[C@@H]1COCCN1C2=NC(=NC(=C2)C3(CC3)[S@](=N)(=O)C)C4=C5C=CNC5=NC=C4 [AZD6738]; settings: max 10 µM
Outline: as §1

[35] = compound: N#Cc1cnc(Nc2cc(NC[C@H]3CNCCO3)c(C(F)(F)F)cn2)cn1 [SRA737]; settings: max 10 µM
Outline: as §1

Row | Cell Line | IC50, cell viability 72 h [1] [µM] | IC50, cell viability 72 h [2] [µM] | IC50, cell viability 72 h [3] [nM] | IC50, cell viability 72 h [4] [µM] | IC50, cell viability 72 h [5] [µM] | IC50, cell viability 72 h [6] [nM] | IC50, cell viability 72 h [7] [nM] | IC50, cell viability 72 h [8] [nM] | IC50, cell viability 72 h [9] [nM] | IC50, cell viability 72 h [10] [nM] | IC50, cell viability 72 h [11] [nM] | IC50, cell viability 72 h [12] [nM] | IC50, cell viability 72 h [13] [µM] | IC50, cell viability 72 h [14] [nM] | IC50, cell viability 72 h [15] [µM] | IC50, cell viability 72 h [16] [µM] | IC50, cell viability 72 h [17] [nM] | IC50, cell viability 72 h [18] [nM] | IC50, cell viability 72 h [19] [µM] | IC50, cell viability 72 h [20] [nM] | IC50, cell viability 72 h [21] [µM] | IC50, cell viability 72 h [22] [nM] | IC50, cell viability 72 h [23] [nM] | IC50, cell viability 72 h [24] [nM] | IC50, cell viability 72 h [25] [nM] | IC50, cell viability 72 h [26] [µM] | IC50, cell viability 72 h [27] [µM] | IC50, cell viability 72 h [28] [µM] | IC50, cell viability 72 h [29] [nM] | IC50, cell viability 72 h [30] [nM] | IC50, cell viability 72 h [31] [µM] | IC50, cell viability 72 h [32] [µM] | IC50, cell viability 72 h [33] [µM] | IC50, cell viability 72 h [34] [µM] | IC50, cell viability 72 h [35] [nM]
1 | A4-Fuk (B-Lymphoblastic Leukemia) | 2.06 | 5.86 | > 1000 | 0.321 | 3.92 | 966 | 771 | 29.4 | > 1 | > 300 | 282 | 3.17 | > 10 | 77.6 | > 10 | 0.234 | 2420 | 6.82 | > 10 | 110 | 5.15 | > 1000 | > 1000 | 7.45 | > 2000 | 0.207 | 4.24 | 2.77 | 17.4 | 237 | 2.21 | 7.57 | > 10 | 2.21 | 844
2 | COLO-668 (Small Cell Lung Carcinoma) | > 10 | > 10 | 319 | > 10 | > 20 | > 1000 | 4480 | > 1000 | > 1 | > 300 | 408 | > 3000 | > 10 | > 1000 | > 10 | 5.34 | > 3000 | 41.3 | > 10 | > 3000 | > 10 | > 1000 | > 1000 | 63.7 | > 2000 | > 10 | > 10 | > 10 | 5.32 | 329 | > 10 | > 10 | > 10 | 8.16 | > 10000
3 | COLO-679 (Melanoma) | > 10 | > 10 | > 1000 | 7.18 | > 20 | > 1000 | 90.6 | > 1000 | > 1 | > 300 | 3.7 | 658 | > 10 | > 1000 | > 10 | > 10 | > 3000 | 15.2 | > 10 | > 3000 | > 10 | > 1000 | > 1000 | 11.2 | > 2000 | > 10 | > 10 | > 10 | 46.1 | 342 | > 10 | > 10 | 0.242 | 4.92 | 1890
4 | Ca-Ski (Cervical Carcinoma) | > 10 | > 10 | > 1000 | 8.85 | > 20 | > 1000 | > 5000 | 867 | > 1 | > 300 | > 1000 | 23.8 | > 10 | > 1000 | > 10 | 2.22 | > 3000 | 222 | > 10 | 657 | > 10 | > 1000 | > 1000 | 83.8 | 558 | 8.32 | > 10 | > 10 | 11.7 | 355 | > 10 | > 10 | > 10 | > 10 | > 10000
5 | DU-145 (Prostate Carcinoma) | > 10 | > 10 | > 1000 | > 10 | > 20 | > 1000 | > 5000 | > 1000 | > 1 | > 300 | > 1000 | 187 | > 10 | > 1000 | > 10 | > 10 | > 3000 | > 300 | > 10 | > 3000 | > 10 | > 1000 | > 1000 | 262 | > 2000 | > 10 | > 10 | > 10 | 47.3 | > 1000 | > 10 | > 10 | > 10 | > 10 | > 10000
